Source: US20080015386A1, “Crystal of L-Ornithine-Citric Acid Salt” (KYOWA HAKKO KOGYO CO., LTD., priority 2004, published 2008)

Conditions: 25° C., relative humidity 75%, weight change measured until day 7; numerical values only in FIG. 1
Protocol: A saturated aqueous solution of sodium chloride (approximately 200 mL) was allowed to stand in a plastic desiccator at 25° C. for 24 hours (relative humidity was adjusted to 75%). […] The weighing vessel was allowed to stand in the desiccator with the humidity adjusted, and the weight change of the weighing vessel was measured over the course of time.
The hygroscopicity (hygroscopic degree) was calculated using the following formula (1) on the basis of the weight change at each measuring time. The measurement of the weight change of the weighing vessel was continued until day 7.
Hygroscopic rate (%)=W3−W2/W2−W1×100 (1)
W1=Weight (g) of a weighing vessel
W2=Weight (g) of a weighing vessel filled with crystals before the test
W3=Weight (g) of a weighing vessel filled with crystals after the test

SMILES: NCCC[C@H](N)C(=O)O.NCCC[C@H](N)C(=O)O.O=C(O)CC(O)(CC(=O)O)C(=O)O [Example 1, L-ornithine-½ citric acid salt]
- Hygroscopicity (hygroscopic rate): did not show notable hygroscopicity
